Experimental data reported in US11976069B2, “Inhibitors of histone deacetylase useful for the treatment or prevention of HIV infection” (Merck Sharp & Dohme LLC, priority 2019, dated 2024).
Like-named read-outs stand apart in the source and are kept apart here.

Legend:
HDAC2 = molecular target: T1, HDAC2 (Homo sapiens, UniProt Q92769); experiment: HDAC2 inhibition, modified Fluor-de-Lys assay; type: biochemical; conditions: 3 h pre-incubation, 40 μM substrate BML-KI104, read-out: HDAC-2 IC50
T1 construct: Full length human HDAC2-FLAG was expressed in baculovirus infected Sf9 cells; FLAG (C); host or cells: baculovirus infected Sf9 cells
T1 sequence (Q92769 whole entry): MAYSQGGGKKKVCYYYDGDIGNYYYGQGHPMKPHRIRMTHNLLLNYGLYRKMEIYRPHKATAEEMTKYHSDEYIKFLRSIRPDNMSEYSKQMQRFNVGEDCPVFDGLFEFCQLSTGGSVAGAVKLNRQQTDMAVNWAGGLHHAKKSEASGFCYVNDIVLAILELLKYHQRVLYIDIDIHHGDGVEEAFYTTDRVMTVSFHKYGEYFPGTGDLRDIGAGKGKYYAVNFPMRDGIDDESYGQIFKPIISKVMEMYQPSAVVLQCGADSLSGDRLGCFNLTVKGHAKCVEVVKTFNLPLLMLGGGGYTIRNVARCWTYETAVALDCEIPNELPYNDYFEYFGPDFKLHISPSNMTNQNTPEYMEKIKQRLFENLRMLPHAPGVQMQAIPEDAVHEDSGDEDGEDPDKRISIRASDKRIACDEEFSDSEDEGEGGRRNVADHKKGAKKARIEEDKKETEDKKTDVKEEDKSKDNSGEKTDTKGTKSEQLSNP
Procedure: (§1) Human HDAC Enzyme Inhibitor FLUOR-DE-LYS Assay Materials
(§2) Recombinant human HDAC1, HDAC2, and HDAC3/SMRT heterodimer were prepared by Merck Research Laboratories. […] The eluted protein was then passed over an anti-HDAC1 immunoaffinity column to remove any complexes containing HDAC1. […]
(§3) The histone deacetylase activities of HDAC1, HDAC2, HDAC3, HDAC6, and HDAC8 were measured in modified Fluor-de-Lys assays in 384-well format. In this assay, HDAC enzymes are initially incubated with an ε-acetyl (or -trifluoroacetyl)-L-lysine-containing substrate with a C-terminal amide having aminomethylcoumarin as the amine component. HDACs cleave the ε-acetyl group, rendering the resulting product susceptible to AMC cleavage by trypsin. The released AMC is then detected by its fluorescence.
(§4) The HDAC 1, 2 assays employed buffer A, which contained 20 mM HEPES, pH 8.0, 1 mM MgCl2, 137 mM NaCl, 2.7 mM KCl, 0.05% BSA. The HDAC3/SMRT assay employed buffer B, consisting of 20 mM HEPES, pH 8.0, 1 mM MgCl2, 50 mM NaCl, 2.7 mM KCl, 0.05% BSA, 0.005% Tween 20, and 10 μM IP4. The HDAC6 assay employed buffer C, consisting of 20 mM HEPES, pH 8.0, 1 mM MgCl2, 137 mM NaCl, 2.7 mM KCl, 0.5 mM TCEP (Calbiochem) and 0.05% BSA. The HDAC8 assay employed buffer D, consisting of 20 mM HEPES, pH 8.0, 1 mM MgCl2, 100 mM NaCl, 20 mM KCl, 0.1% n-octyl-β-D-glucoside (Anatrace, Maumee, Ohio) and 0.05% BSA. All steps were performed at room temperature (23° C.). The assay was performed by pre-incubating serial dilutions of test compounds with the target HDAC prior to initiation with substrate. Each compound was titrated in a 10-point dose response, using a 1:3 fold dilution scheme, with 0.15 ul of solution added by ECHO555 to the plate, followed by the addition of 20 μl of the appropriate HDAC isoform diluted in appropriate assay buffer. […] Final conditions used for each assay were: 1. HDAC 1, 0.3 nM total enzyme, 20 μM substrate BML-KI104; 2. HDAC 2, 1.5 nM total enzyme, 40 μM substrate BML-KI104; 3. HDAC 3/SMRT, 0.3 nM total enzyme, 20 μM substrate BML-KI104; 4. HDAC 6, 1.3 nM total enzyme, 2.5 μM substrate BML-KI104; 5. HDAC 8, 1.3 nM total enzyme, 200 μM substrate BML-KI178; the final high dose of test compound was 30 μM. For potent compounds, 900 nM was used as the final high dose. The reactions were stopped and developed by addition of 30 ul of HDAC developer solution containing a saturating level of HDAC inhibitor as follows: 1.

HDAC3/SMRT heterodimer = molecular target: T2, HDAC3/SMRT heterodimer (Homo sapiens, UniProt O15379); experiment: HDAC3/SMRT inhibition, modified Fluor-de-Lys assay; type: biochemical; conditions: 3 h pre-incubation, 0.3 nM enzyme, 20 μM substrate BML-KI104, read-out: HDAC-3 IC50
T2 construct: FLAG (C)
T2 sequence (O15379 whole entry): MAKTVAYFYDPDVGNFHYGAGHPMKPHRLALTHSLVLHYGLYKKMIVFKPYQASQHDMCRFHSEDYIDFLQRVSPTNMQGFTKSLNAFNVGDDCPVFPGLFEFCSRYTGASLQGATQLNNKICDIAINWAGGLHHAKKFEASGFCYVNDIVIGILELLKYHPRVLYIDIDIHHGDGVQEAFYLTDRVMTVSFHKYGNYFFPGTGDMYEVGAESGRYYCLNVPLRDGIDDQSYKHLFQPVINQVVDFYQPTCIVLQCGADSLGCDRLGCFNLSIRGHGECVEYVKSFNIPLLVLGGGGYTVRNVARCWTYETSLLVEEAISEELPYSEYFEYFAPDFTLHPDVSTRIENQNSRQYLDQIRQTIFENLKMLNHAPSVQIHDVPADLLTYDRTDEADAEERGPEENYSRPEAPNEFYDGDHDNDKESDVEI
T2 sequence (Q9Y618 1-899 partner limits assumed): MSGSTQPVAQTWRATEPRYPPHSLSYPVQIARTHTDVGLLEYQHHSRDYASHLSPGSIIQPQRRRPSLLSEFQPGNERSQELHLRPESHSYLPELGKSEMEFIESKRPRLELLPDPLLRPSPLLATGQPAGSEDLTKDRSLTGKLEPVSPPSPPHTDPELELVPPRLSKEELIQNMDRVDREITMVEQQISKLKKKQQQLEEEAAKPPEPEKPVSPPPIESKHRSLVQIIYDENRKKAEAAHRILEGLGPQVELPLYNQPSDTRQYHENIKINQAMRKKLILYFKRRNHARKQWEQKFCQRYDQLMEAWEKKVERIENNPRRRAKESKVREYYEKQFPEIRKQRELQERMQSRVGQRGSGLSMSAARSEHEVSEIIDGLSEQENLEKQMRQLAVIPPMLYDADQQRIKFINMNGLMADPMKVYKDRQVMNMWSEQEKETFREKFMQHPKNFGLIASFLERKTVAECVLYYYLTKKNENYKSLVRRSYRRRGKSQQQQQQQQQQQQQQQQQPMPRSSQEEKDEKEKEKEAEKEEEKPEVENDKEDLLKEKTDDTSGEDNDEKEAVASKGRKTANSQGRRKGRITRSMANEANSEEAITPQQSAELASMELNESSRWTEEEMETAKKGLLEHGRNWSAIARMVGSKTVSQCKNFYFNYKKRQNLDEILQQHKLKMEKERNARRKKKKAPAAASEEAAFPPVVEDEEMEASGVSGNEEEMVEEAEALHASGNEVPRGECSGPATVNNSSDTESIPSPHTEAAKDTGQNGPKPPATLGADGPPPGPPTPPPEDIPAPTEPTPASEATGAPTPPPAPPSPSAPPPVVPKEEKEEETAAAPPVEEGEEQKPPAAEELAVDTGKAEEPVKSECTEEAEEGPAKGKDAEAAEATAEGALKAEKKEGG
Procedure: as §1, §2, §3, §4

HDAC1 = molecular target: T3, HDAC1 (Homo sapiens, UniProt Q13547); experiment: HDAC1 inhibition, modified Fluor-de-Lys assay; type: biochemical; conditions: 3 h pre-incubation, 0.3 nM enzyme, 20 μM substrate BML-KI104; read-out: HDAC-1 IC50
T3 construct: FLAG (C)
T3 sequence (Q13547 whole entry): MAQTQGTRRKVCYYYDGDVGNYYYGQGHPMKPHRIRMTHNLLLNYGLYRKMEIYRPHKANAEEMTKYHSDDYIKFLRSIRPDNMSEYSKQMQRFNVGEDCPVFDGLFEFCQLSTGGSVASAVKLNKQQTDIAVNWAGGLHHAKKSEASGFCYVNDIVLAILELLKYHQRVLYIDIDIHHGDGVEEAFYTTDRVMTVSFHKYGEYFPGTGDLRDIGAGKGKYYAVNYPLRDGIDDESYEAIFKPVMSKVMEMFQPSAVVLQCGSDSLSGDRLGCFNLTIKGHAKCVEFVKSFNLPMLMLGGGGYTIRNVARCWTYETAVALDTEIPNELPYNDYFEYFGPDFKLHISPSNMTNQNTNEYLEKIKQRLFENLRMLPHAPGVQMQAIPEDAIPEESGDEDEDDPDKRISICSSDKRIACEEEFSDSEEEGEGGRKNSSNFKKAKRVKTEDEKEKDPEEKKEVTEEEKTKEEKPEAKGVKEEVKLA
Procedure: as §1, §2, §3, §4

KARN cells (Jurkat 2C4) = experiment: KARN assay (luciferase induction); type: cell-based; conditions: Jurkat, ~20 hr, 100% induction = 2 μM SAHA
Procedure: KARN cells (Jurkat 2C4) were licensed from the laboratory of Dr. John Kam, Case Western Reserve University, School of Medicine. […] An atmosphere of 5% CO2 and 90% humidity was used for all culture work. Cells were split and reseeded into T175 flasks at a density of 0.2×10^6 cells/ml, in 40 ml of media, every 3-4 days.
Day 1: After the 3-4 day growth period, the cells were transferred from the T175 flask to a 50 ml conical tube and gently pelleted at 1000 rpm for 5 minutes. […] These flasks were returned to the incubator.
Day 2: Cell Preparation: The next day, the cells were transferred from each T175 flask to an individual 50 ml conical tube and gently pelleted at 1000 rpm for 5 minutes. The cells were gently resuspended in assay media (30 ml) and pelleted again. […] The cells were counted using the ViCell (Beckman Coulter, Brea, Calif.) and diluted as necessary. A Multidrop (Combi, Thermo Scientific, Waltham, Mass.) with a sterile head was used to seed the cells into the wells of a 384-well solid black plate with lid (Perkin Elmer, Waltham, Mass., catalog number 6007660) at 4000 cells/30 μl/well for the 5% NHS assay media and 6000 cells/30 μl/well for 0.1% NHS assay. The plates were covered and returned to the incubator prior to compound addition.
Compound Preparation: Solutions of control inhibitor suberoylanilide hydroxamic acid (SAHA; Sigma, catalog number SML0061) and test compounds in 100% DMSO were titrated into 384-well polypropylene plates (Labcyte, San Jose, Calif., catalog number P-05525) using a 20-point dose response and 2-fold dilutions. The reference compounds, DMSO and SAHA were then added to the compound plate. Using the Access system (Labcyte), 120 nl of these inhibitor and control solutions were added to the individual wells of the plates containing the cells, and the plates were then returned to the incubator for ˜20 hr (range from 18-24 hr). The final high concentration for SAHA and the test compounds in the assays was 40 μM. The final DMSO concentration in all wells was 0.4%. The minimal induction reference compound used was DMSO and the maximal induction reference compound used was SAHA (2 μM final concentration in the assay).
Day 3: The luciferase detection reagent was prepared by transferring the contents of one bottle of Steady-Glo buffer to one bottle of Steady-Glo substrate (Steady-Glo Luciferase Assay System, Promega, Madison, […]., catalog number E2520), followed by gently mixing until the substrate was thoroughly dissolved and the solution was equilibrated to room temperature. The cell culture assay plates were removed from the incubator and brought to room temperature (15 min). The Steady-Glo Reagent was added to the plates (30 μl/well), which were then covered with a black lid and incubated for 10 minutes at room temperature. The plates were then read for luminescence on an Envision (Perkin Elmer) using the ultrasensitive mode (US LUM), […] and 384-well aperture. Luminescence counts in the DMSO reference wells were considered as 0% induction, while those in the 2 μM SAHA reference wells were considered as 100% induction. Dose response curves were plotted as test compound concentration (X-axis) vs. percent activation (Y-axis) using a 4-parameter fit based on the Levenberg-Marquardt algorithm.

[1] = read-out: Karn EC50 with 0.1% NHS, 0.1% normal human serum
[2] = read-out: Karn EC50 with 5% NHS, 5% normal human serum

Row | SMILES | IC50 (HDAC2; […] enzyme) | IC50 (HDAC3/SMRT heterodimer) | IC50 (HDAC1) | EC50 (KARN cells (Jurkat 2C4); [1]) | EC50 (KARN cells (Jurkat 2C4); [2]) | IC50 (HDAC2; 1.5 nM enzyme)
1 | CCC(=O)CCCCC[C@@H]1NC(=O)CN(C)CCCCOCCCCn2ccc3cc(ccc3c2=O)-c2cnc1[nH]2 [Compound 6, (3S)-7-methyl-3-(6-oxooctyl)-11,12-dihydro-21H-12-oxa-4,7-diaza-1(6,2)-isoquinolina-2(5,2)-imidazolacyclohexadecaphane-11,5-dione] | 595 nM | 248 nM | 28 nM | 2500 nM | 3510 nM | 
2 | CCC(=O)CCCCC[C@@H]1NC(=O)[C@H]2CC23CCN(CCCCN2C4CCC2c2c(cccc24)-c2cnc1[nH]2)CC3 (stereo partly drawn) [Compound 2, (11S,4S)-4-(6-oxooctyl)-61,62,63,64-tetrahydro-51H-3-aza-6(5,9)-1,4-epiminonaphthalena-11(4,1)-piperidina-5(2,5)-imidazola-1(1,2)-cyclopropanaundecaphan-2-one] |  | 24 nM | 45 nM | 6270 nM | 9060 nM | 176 nM
3 | CCC(=O)CCCCC[C@@H]1NC(=O)[C@H]2CC23CCN(CCCCCOc2ccc4cc(ccc4n2)-c2cnc1o2)CC3 [Compound 9] | 335 nM | 150 nM | 24 nM | > 40000 nM | > 40000 nM | 
4 | CCC(=O)CCCCC[C@H](NC(=O)[C@H]1CC12CCN(CC)CC2)c1[nH]c2nc1C(=O)NCCCCCc1cccc-2c1 [Compound 13, (S)-6-ethyl-N-((S)-7-oxo-1-((Z)-9-oxo-11H-8-aza-1(2,4)-imidazola-2(1,3)-benzenacyclononaphane-15-yl)nonyl)-6-azaspiro[2.5]octane-1-carboxamide] |  | 103 nM | 109 nM | > 40000 nM | 12000 nM | 
5 | CCC(=O)CCCCC[C@@H]1NC(=O)[C@H]2CC23CCN(C/C=C/CN2C4CCC2c2cc(ccc24)-c2cnc1[nH]2)CC3 (stereo partly drawn) [Compound 3, (1^1S,4S,E)-4-(6-oxooctyl)-6^1,6^2,6^3,6^4-tetrahydro-5^1H-3-aza-6(6,9)-1,4-epiminonaphthalena-11(4,1)-piperidina-5(2,5)-imidazola-1(1,2)-cyclopropanaundecaphan-8-en-2-one] |  | 0.86 nM | 2.7 nM | 73 nM | 76 nM | 7 nM
6 | CCC(=O)CCCCC[C@@H]1NC(=O)[C@H]2CC23CCN(CCOCCn2ccc4cc(ccc4c2=O)-c2cnc1[nH]2)CC3 [Compound 4, (1^1S,4S)-4-(6-oxooctyl)-6^1,6^2-dihydro-5^1H-9-oxa-3-aza-6(6,2)-isoquinolina-12(4,1)-piperidina-5(2,5)-imidazola-1(1,2)-cyclopropanadodecaphane-6^1,2-dione] | 35 nM | 7.1 nM | 0.61 nM | > 40000 nM | > 40000 nM | 
7 | CCC(=O)CCCCC[C@@H]1NC(=O)[C@H]2CC23CCN(CCCOCCn2ccc4cc(ccc4c2=O)-c2cnc1[nH]2)CC3 [Compound 11, (3S,6S)-6-(6-oxooctyl)-21-oxa-5,8,18,25,32-pentaazahexacyclo[23.2.2.1˜7,10˜0.1˜11,15˜0.1˜14,18˜0.0˜1,3˜] dotriaconta-7,9,11(31),12,14,16-hexaene-4,30-dione] | 22 nM | 2.6 nM | 0.11 nM | > 40000 nM | > 40000 nM | 
8 | CCC(=O)CCCCC[C@@H]1NC(=O)[C@H]2CC23CCN(CCCCN2C4CCC2c2cc(ccc24)-c2cnc1[nH]2)CC3 (stereo partly drawn) [Compound 10, (3S,6S)-6-(6-oxooctyl)-5,8,20,25,31-pentaazaheptacyclo[23.2.2.1˜7,10˜.1˜11,15˜.0˜1,3˜.0˜14,19˜0.0˜16,20˜]hentriaconta-7,9,11(30),12,14-pentaen-4-one] |  | 49 nM | 19 nM | 844 nM | 867 nM | 148 nM
9 | CCC(=O)CCCCC[C@@H]1NC(=O)[C@H]2CC23CCN(CCCCCCCCn2ccc4cc(ccc4c2=O)-c2cnc1[nH]2)CC3 [Compound 1, (3S,6S)-6-(6-oxooctyl)-5,8,18,27,34-pentaazahexacyclo[25.2.2.1˜7,10˜.1˜11,15˜.1˜14,18˜.0˜1,3˜]tetratriaconta-7,9,11(33),12,14,16-hexaene-4,32-dione] | 0.43 nM | 0.061 nM | 0.2 nM | 14 nM | 16 nM | 
